Data on one molecule can be found in patent US20150107993A1, “METHODS AND APPARATUSES FOR […] POLLUTION” (Transfert Plus, s.e.c., priority 2012, published 2015).

Test [1] relates to green algae Chlamydomonas reinhardtii (CC-125). Nature of the test: Algal fluorescence inhibition (Vj) measured with the commercial Handy-PEA fluorometer. The class given is cell-based. The conditions noted are these: Handy-PEA commercial system, 1×10^6 cell/ml algal culture, same experimental conditions, read-out: concentration of DCMU inhibiting 50% of the algae photochemistry (EC50), evaluated with Vj. The procedure: According to the experimental evaluation using the test apparatus, pollutant detection measurements, a 1×10^6 cell/ml green algal culture was used. Different concentrations of Diuron or DCMU (3(3,4-dichlorophenyl)-1,1-dimethylurea from Aldrich) were prepared in pure ethanol. For each measurement, 30 μL of DCMU was mixed with 2 mL of algal solution. The mixtures were exposed for 30 min under a 100 μmol·m-2·s-1 light intensity, and then dark adapted for 15 min before being injected into the microfluidic chip with a syringe pump to fully fill a microfluidic chamber (around 10 μL). Algal exposure to ethanol concentration used in this study (without DCMU) had no effect on the fluorescence measurements (data not shown). Each measurement was replicated three times. […]
According to the experimental evaluation using the test apparatus, Handy-PEA fluorometer (Hansatech Ltd.) was used as the commercial available equipment to be compared with the microfluidic sensor. […] Fluorescence emission was detected for wavelengths over 700 nm.
According to the experimental evaluation using the test apparatus, from this kinetic of the fluorescence signal, it is possible to extract several parameters representing physiological processes. […] The relative variable fluorescence at 2 ms Vj is very sensitive to Diuron as it is proportional to reaction centers closed at 2 ms. […]

Test [2] shares this test system. Kind of test: Algal fluorescence inhibition (F25m) measured with the microfluidic OLED/OPD test apparatus. The note with it: 1×10^6 cell/ml algal culture. The format is cell-based. As to the method: According to an experimental evaluation using the test apparatus, green algae Chlamydomonas reinhardtii (CC-125) was cultivated in 250 mL Erlenmeyer flasks in High Salt Medium (HSM) with the adjusted pH=6.8±0.1. The algae were grown at 25° C. under a light intensity of 100 μmol·m-2·s-1 provided by white-light neon lamps and a 16 h-light/8 h-dark cycle. Cells were maintained continuously in the mid-exponential growth phase (up to 4×10^6 cell/ml) before experiments. To measure the minimum density of algae that can be detected, successive dilutions of a 3×10^6 cell/ml algal culture were prepared in HSM. These solutions were dark adapted for 15 min before fluorescence measurement in order to reoxidize photosystem II reaction centers.
According to the experimental evaluation using the test apparatus, pollutant detection measurements, a 1×10^6 cell/ml green algal culture was used. […] Algal exposure to ethanol concentration used in this study (without DCMU) had no effect on the fluorescence measurements (data not shown). […]
It was noticed that the injection of the pollutant changes fluorescence kinetics. An increase in the fluorescence signal for the first 100 ms, proportional to the pollutant concentration was observed. DCMU induced this fluorescence increase because it blocks the electron transfer in PSII. […]

Another test relates to Algae culture CC125. Nature of the test: Oxygen concentration measurement with the nanofilament electrical detector in a microfluidic channel. The class given is cell-based, Chlamydomonas reinhardtii. The conditions noted are these: 1 μM Diuron; CC125 5M cell/ml; -0.6V between working and reference electrode. As to the method:
According to an experimental evaluation, in order to measure the oxygen level, the electrodes making up the electrical detector are integrated in a glass microfluidic channel, and aligned on an OLED. Algae culture CC125 (5M cell/ml concentration) is injected in the microfluidic channel, the oxygen measure being continuously taken through applying-0.6V between the working electrode and the reference electrode. A Diuron concentration of 1 uM is added to the algae culture before the injection into the chip and the measuring. Standard measures of 1 uM of pollutant were made in triplicate.
Oxygen variation of algae, which is the combination of both production and breathing of algae, can therefore be linked to the pollutant concentration contained in the analyte. In order to measure oxygen production, this detector is also composed of the same organic light source used by the fluorescence detector (OLED.
FIG. 22A refers to oxygen concentration levels measured with the electrical detector for 1 μM of Diuron and with a reference (that has not been exposed to Diuron).

Structures are written as SMILES.

In the case of `CN(C)C(=O)Nc1ccc(Cl)c(Cl)c1` [Diuron, 3(3,4-dichlorophenyl)-1,1-dimethylurea], the EC50 came out at 0.22 µM in test [1] and 0.011 µM in test [2] (Chlamydomonas reinhardtii, test apparatus, 30 min light exposure, 15 min dark adaptation, read-out: concentration of DCMU inhibiting 50% of the algae photochemistry (EC50), evaluated with F25m). The “lowest concentration tested that gave a significant difference with the control algae for the Finh parameter” value in test [2] (30 min of light exposure) is on record as 7.5 nM. In addition, the “decrease in total oxygen production from algae” value in the test with Algae culture CC125 is given as “about 26%”.
